Experimental data published in patent US9290777B2, “Putative cytokinin receptor and methods for use thereof” (NATIONAL UNIVERSITY OF SINGAPORE, priority 2007, dated 2016).
“Also recorded” adds a separate entry of the source.

Tested on: KNAT1
Experiment: qRT-PCR of cytokinin responsive gene after BA pulse, fold change vs untreated wild type
Type: cell-based, Arabidopsis thaliana
Protocol: For quantitative real-time PCR (qRT-PCR) analysis of cytokinin-inducible gene expression, seeds were germinated on MS medium with 3% (w/v) sucrose and grown for 6 days. Cytokinin treatment was carried out by incubating seedlings in the same MS+sucrose liquid medium (no agar) supplemented with 0, 0.01, 0.1, 1 or 5 μM [solubilized in 0.1% dimethylsulfoxide (DMSO) and diluted with the MS medium] for 5 min, 15 min, 30 min or 1 h. The control seedlings were incubated with DMSO (0.1%, the concentration used to dissolve cytokinins for the treatment) for the corresponding durations and used for expression analysis. Before RNA preparation, WT, OE and AS seedlings were pooled and stored in RNAlater solution (Qiagen, Valencia, Calif.). Total RNA was extracted using the Rneasy Plant Mini Kit (Qiagen). SYBRgreen RT-PCR reagents (Applied Biosystems) were used to synthesize double-stranded cDNA. The number of transcripts present in biological replicates each of WT, OE and AS seedlings, with or without BA and DMSO, was determined from three independent replicates. Fold induction of the transcripts was calculated according to the manufacturer's instructions (ABI Prism 7700 Sequence Detection System, User Bulletin #2).

For `c1ccc(CNc2ncnc3nc[nH]c23)cc1` [benzyladenine], the “KNAT1 transcripts in OE lines compared to untreated wild type” value (5 μM BA, 1 h, OE lines (e.g. OE1, OE12), listed as BA) was “less than a two fold change; also recorded: no significant difference”, the KNAT1 fold change (BA 0.01 μM, 5 min, AS1, ↑ up) was 8.12↑ and the KNAT1 fold change (BA 0.01 μM, 5 min, AS8, ↑ up) was 9.1↑. For the same compound, the KNAT1 fold change (BA 0.01 μM, 5 min, AS21, ↑ up) was 10.01↑, the KNAT1 fold change (BA 0.01 μM, 5 min, OE1, ↓ down) was 4.01↓ and the KNAT1 fold change (BA 0.01 μM, 5 min, OE12, ↓ down) was 4.87↓. For the same compound, the KNAT1 fold change (BA 0.01 μM, 5 min, OE18, ↓ down) was 6.56↓, the KNAT1 fold change (BA 0.01 μM, 5 min, Wild type, ↑ up) was 2.13↑ and the KNAT1 fold change (BA 0.01 μM, 15 min, AS1, ↑ up) was 8.57↑. The KNAT1 fold change (BA 0.01 μM, 15 min, AS8, ↑ up) was 9.21↑, the KNAT1 fold change (BA 0.01 μM, 15 min, AS21, ↑ up) was 10.39↑ and the KNAT1 fold change (BA 0.01 μM, 15 min, OE1, ↓ down) was 3.86↓. The KNAT1 fold change (BA 0.01 μM, 15 min, OE12, ↓ down) was 4.56↓, the KNAT1 fold change (BA 0.01 μM, 15 min, OE18, ↓ down) was 6.32↓ and the KNAT1 fold change (BA 0.01 μM, 15 min, Wild type, ↑ up) was 2.67↑. The KNAT1 fold change (BA 0.01 μM, 30 min, AS1, ↑ up) was 8.98↑, the KNAT1 fold change (BA 0.01 μM, 30 min, AS8, ↑ up) was 9.86↑ and the KNAT1 fold change (BA 0.01 μM, 30 min, AS21, ↑ up) was 10.53↑. The KNAT1 fold change (BA 0.01 μM, 30 min, OE1, ↓ down) was 3.41↓, the KNAT1 fold change (BA 0.01 μM, 30 min, OE12, ↓ down) was 4.13↓ and the KNAT1 fold change (BA 0.01 μM, 30 min, OE18, ↓ down) was 6.13↓. For the same compound, the KNAT1 fold change (BA 0.01 μM, 30 min, Wild type, ↑ up) was 2.98↑, the KNAT1 fold change (BA 0.01 μM, 1 h, AS1, ↑ up) was 9.20↑ and the KNAT1 fold change (BA 0.01 μM, 1 h, AS8, ↑ up) was 9.98↑. For the same compound, the KNAT1 fold change (BA 0.01 μM, 1 h, AS21, ↑ up) was 11.99↑, the KNAT1 fold change (BA 0.01 μM, 1 h, OE1, ↓ down) was 3.01↓ and the KNAT1 fold change (BA 0.01 μM, 1 h, OE12, ↓ down) was 3.06↓. For the same compound, the KNAT1 fold change (BA 0.01 μM, 1 h, OE18, ↓ down) was 5.98↓, the KNAT1 fold change (BA 0.01 μM, 1 h, Wild type, ↑ up) was 3.15↑ and the KNAT1 fold change (BA 0.1 μM, 5 min, AS1, ↑ up) was 9.14↑. The KNAT1 fold change (BA 0.1 μM, 5 min, AS8, ↑ up) was 10.12↑, the KNAT1 fold change (BA 0.1 μM, 5 min, AS21, ↑ up) was 11.11↑ and the KNAT1 fold change (BA 0.1 μM, 5 min, OE1, ↓ down) was 3.56↓. For the same compound, the KNAT1 fold change (BA 0.1 μM, 5 min, OE12, ↓ down) was 3.91↓, the KNAT1 fold change (BA 0.1 μM, 5 min, OE18, ↓ down) was 5.89↓ and the KNAT1 fold change (BA 0.1 μM, 5 min, Wild type, ↑ up) was 3.36↑. For the same compound, the KNAT1 fold change (BA 0.1 μM, 15 min, AS1, ↑ up) was 9.39↑, the KNAT1 fold change (BA 0.1 μM, 15 min, AS8, ↑ up) was 10.32↑ and the KNAT1 fold change (BA 0.1 μM, 15 min, AS21, ↑ up) was 11.26↑. For the same compound, the KNAT1 fold change (BA 0.1 μM, 15 min, OE1, ↓ down) was 3.24↓, the KNAT1 fold change (BA 0.1 μM, 15 min, OE12, ↓ down) was 3.71↓ and the KNAT1 fold change (BA 0.1 μM, 15 min, OE18, ↓ down) was 5.72↓. For the same compound, the KNAT1 fold change (BA 0.1 μM, 15 min, Wild type, ↑ up) was 3.58↑, the KNAT1 fold change (BA 0.1 μM, 30 min, AS1, ↑ up) was 9.69↑ and the KNAT1 fold change (BA 0.1 μM, 30 min, AS8, ↑ up) was 10.57↑. The KNAT1 fold change (BA 0.1 μM, 30 min, AS21, ↑ up) was 11.48↑, the KNAT1 fold change (BA 0.1 μM, 30 min, OE1, ↓ down) was 3.12↓ and the KNAT1 fold change (BA 0.1 μM, 30 min, OE12, ↓ down) was 3.59↓. The KNAT1 fold change (BA 0.1 μM, 30 min, OE18, ↓ down) was 5.36↓, the KNAT1 fold change (BA 0.1 μM, 30 min, Wild type, ↑ up) was 3.89↑ and the KNAT1 fold change (BA 0.1 μM, 1 h, AS1, ↑ up) was 9.98↑. For the same compound, the KNAT1 fold change (BA 0.1 μM, 1 h, AS8, ↑ up) was 10.99↑, the KNAT1 fold change (BA 0.1 μM, 1 h, AS21, ↑ up) was 11.83↑ and the KNAT1 fold change (BA 0.1 μM, 1 h, OE1, ↓ down) was 2.96↓. The KNAT1 fold change (BA 0.1 μM, 1 h, OE12, ↓ down) was 3.21↓, the KNAT1 fold change (BA 0.1 μM, 1 h, OE18, ↓ down) was 5.01↓ and the KNAT1 fold change (BA 0.1 μM, 1 h, Wild type, ↑ up) was 3.99↑. For the same compound, the KNAT1 fold change (BA 1.0 μM, 5 min, AS1, ↑ up) was 10.43↑, the KNAT1 fold change (BA 1.0 μM, 5 min, AS8, ↑ up) was 11.01↑ and the KNAT1 fold change (BA 1.0 μM, 5 min, AS21, ↑ up) was 11.93↑. For the same compound, the KNAT1 fold change (BA 1.0 μM, 5 min, OE1, ↓ down) was 2.76↓, the KNAT1 fold change (BA 1.0 μM, 5 min, OE12, ↓ down) was 3.19↓ and the KNAT1 fold change (BA 1.0 μM, 5 min, OE18, ↓ down) was 4.36↓. For the same compound, the KNAT1 fold change (BA 1.0 μM, 5 min, Wild type, ↑ up) was 4.1↑, the KNAT1 fold change (BA 1.0 μM, 15 min, AS1, ↑ up) was 10.68↑ and the KNAT1 fold change (BA 1.0 μM, 15 min, AS8, ↑ up) was 11.43↑. The KNAT1 fold change (BA 1.0 μM, 15 min, AS21, ↑ up) was 12.02↑, the KNAT1 fold change (BA 1.0 μM, 15 min, OE1, ↓ down) was 2.51↓ and the KNAT1 fold change (BA 1.0 μM, 15 min, OE12, ↓ down) was 3.01↓. For the same compound, the KNAT1 fold change (BA 1.0 μM, 15 min, OE18, ↓ down) was 4.21↓, the KNAT1 fold change (BA 1.0 μM, 15 min, Wild type, ↑ up) was 4.31↑ and the KNAT1 fold change (BA 1.0 μM, 30 min, AS1, ↑ up) was 10.73↑. The KNAT1 fold change (BA 1.0 μM, 30 min, AS8, ↑ up) was 11.69↑, the KNAT1 fold change (BA 1.0 μM, 30 min, AS21, ↑ up) was 12.35↑ and the KNAT1 fold change (BA 1.0 μM, 30 min, OE1, ↓ down) was 2.29↓. For the same compound, the KNAT1 fold change (BA 1.0 μM, 30 min, OE12, ↓ down) was 2.89↓, the KNAT1 fold change (BA 1.0 μM, 30 min, OE18, ↓ down) was 4.01↓ and the KNAT1 fold change (BA 1.0 μM, 30 min, Wild type, ↑ up) was 4.59↑. The KNAT1 fold change (BA 1.0 μM, 1 h, AS1, ↑ up) was 11.01↑, the KNAT1 fold change (BA 1.0 μM, 1 h, AS8, ↑ up) was 11.93↑ and the KNAT1 fold change (BA 1.0 μM, 1 h, AS21, ↑ up) was 12.76↑. For the same compound, the KNAT1 fold change (BA 1.0 μM, 1 h, OE1, ↓ down) was 2.01↓, the KNAT1 fold change (BA 1.0 μM, 1 h, OE12, ↓ down) was 2.16↓ and the KNAT1 fold change (BA 1.0 μM, 1 h, OE18, ↓ down) was 3.92↓. For the same compound, the KNAT1 fold change (BA 1.0 μM, 1 h, Wild type, ↑ up) was 4.87↑, the KNAT1 fold change (BA 5.0 μM, 5 min, AS1, ↑ up) was 10.98↑ and the KNAT1 fold change (BA 5.0 μM, 5 min, AS8, ↑ up) was 11.98↑. The KNAT1 fold change (BA 5.0 μM, 5 min, AS21, ↑ up) was 12.43↑, the KNAT1 fold change (BA 5.0 μM, 5 min, OE1, ↓ down) was 2.19↓ and the KNAT1 fold change (BA 5.0 μM, 5 min, OE12, ↓ down) was 2.87↓. For the same compound, the KNAT1 fold change (BA 5.0 μM, 5 min, OE18, ↓ down) was 3.45↓, the KNAT1 fold change (BA 5.0 μM, 5 min, Wild type, ↑ up) was 5.52↑ and the KNAT1 fold change (BA 5.0 μM, 15 min, AS1, ↑ up) was 11.01↑. The KNAT1 fold change (BA 5.0 μM, 15 min, AS8, ↑ up) was 12.07↑, the KNAT1 fold change (BA 5.0 μM, 15 min, AS21, ↑ up) was 12.54↑ and the KNAT1 fold change (BA 5.0 μM, 15 min, OE1, ↓ down) was 2.01↓. The KNAT1 fold change (BA 5.0 μM, 15 min, OE12, ↓ down) was 2.62↓, the KNAT1 fold change (BA 5.0 μM, 15 min, OE18, ↓ down) was 3.18↓ and the KNAT1 fold change (BA 5.0 μM, 15 min, Wild type, ↑ up) was 5.69↑. For the same compound, the KNAT1 fold change (BA 5.0 μM, 30 min, AS1, ↑ up) was 11.23↑, the KNAT1 fold change (BA 5.0 μM, 30 min, Wild type, ↑ up) was 5.89↑ and the “KNAT1 transcripts, dose dependence” value (BA 0.01-5 μM pulse, 5 min-1 h) was “dose-dependent increase”.
